Reference: US20240293548A1, “CONTACT LENS FOR PHOTODYNAMIC INACTIVATION OF GERMS, PRODUCT AND METHOD OF TREATING FUNGAL KERATITIS BY APPLYING THE SAME” (NATIONAL CHENG KUNG UNIVERSITY, priority 2023, published 2024)

Key:
[1] = tested on: Candida albicans (drug-resistant strain, BCRC 21538 / ATCC 10231); test: Antimicrobial efficacy of rose bengal-PDT (colony counting after green light exposure); type: cell-based; conditions: 0.2 wt % RB; for log reduction value of the amounts of C. albicans: compared to without light exposure; for antimicrobial rate: equivalent of log reduction
Procedure: A drug-resistant strain of Candida albicans was bought from the Bioresource Collection and Research Center (BCRC), Food Industry Research and Development Institute (FIRDI), 331, Shipin Rd., East Dist., Hsinchu City, Taiwan (postcode: 300193) under the accession number of BCRC 21538. The same strain could also be bought from American Type Culture Collection (ATCC), VA, USA under an accession number of ATCC 10231.
The Candida albicans was grown and prepared in a fungal solution with an amount of 1×10^7 CFU/mL and mixed with an equal volume of rose bengal (RB) solution (i.e., the mixed volume ratio was 1:1) to obtain a mixed solution containing 0.2 wt % RB (0.2 wt % RB group).
A portion of the mixed solution containing 0.2 wt % RB and fungi was exposed to green light of 10 J/cm^2 or 20 J/cm^2 at 25±1° C., and another portion of the mixed solution was not treated with light exposure. The light source of the aforementioned green light was a commercial green light LED with an emission peak at the wavelength of 520 nm. […] Noted that three drops represented three repeats. […] In the control group, the fungal solution was mixed with an equal volume of PBS.

C. albicans = test: Antimicrobial efficacy of the photoactive solution after adding a low concentration of hydrogen peroxide; type: cell-based, Candida albicans; conditions: for C. albicans amount compared to the NC group: no light exposure
Procedure: The negative control (referred to as NC) group was the fungal solution of C. albicans not being treated with RB, hydrogen peroxide, and light exposure. The light control (referred to as LC) group was the fungal solution of C. albicans exposed to light but contained neither RB nor hydrogen peroxide. […] The hydrogen peroxide (referred to as H2O2) group was the fungal solution of C. albicans treated with 0.03 wt % hydrogen peroxide without RB for 15 minutes but not subjected to the light exposure treatment. The photodynamic therapy (referred to as PDT) group was the fungal solution of C. albicans treated with 0.1 wt % RB without hydrogen peroxide for 15 minutes and subjected to 35 J/cm^2 green light exposure treatment. The photodynamic therapy with 0.03 wt hydrogen peroxide (referred to as H2O2+PDT) group was the fungal solution of C. albicans treated with 0.1 wt % RB and 0.03 wt % hydrogen peroxide for 15 minutes and subjected to the 35 J/cm^2 green light exposure treatment. FIG. 6 was a bar chart illustrating the amount of C. albicans after different treatments in the fungal solution according to some embodiments of the present invention. The x-axis represented the NC group, the LC group, the DC group, the H2O2 group, the PDT group, and the H2O2+PDT group from left to right. The y-axis represented the C. albicans amount (unit: log CFU/mL).

## O=C1OC2(c3cc(I)c(O)c(I)c3Oc3c2cc(I)c(O)c3I)c2c(Cl)c(Cl)c(Cl)c(Cl)c21 [RB, rose bengal]
[1]; 10 J/cm^2 green light (520 nm)
  log reduction value of the amounts of C. albicans: 1
[1]; 10 J/cm^2 green light
  antimicrobial rate: 90%
[1]; 20 J/cm^2 green light (520 nm)
  log reduction value of the amounts of C. albicans: 6
[1]; 20 J/cm^2 green light
  antimicrobial rate: 99.9999%
C. albicans; DC group: 0.1 wt % RB for 15 minutes
  C. albicans amount compared to the NC group: no significant difference
C. albicans; PDT group: 0.1 wt % RB without hydrogen peroxide, 15 minutes, 35 J/cm^2 green light, compared to NC group
  log reduction value of the C. albicans amount: 2.5

## OO [hydrogen peroxide]
C. albicans; H2O2 group: 0.03 wt % hydrogen peroxide without RB for 15 minutes
  C. albicans amount compared to the NC group: no significant difference
